“Also recorded” adds a separate entry of the source.
Experiments:
[1] = test system: translation of T7-tagBFP-Gluc; test: Translation inhibition assay (T7-tagBFP-Gluc RNA in Huh7 cells); type: cell-based; details: 4 days
From the text: Generation of T7-tagBFP-Gluc. To make the T7-TagBFP-GLuc construct, SP6-TagBFP-2A-FLuc was used as a template and the primers PU-O-6099 and PU-O-6100 were designed to partially anneal immediately upstream and downstream of the SP6 promoter. The unbound portions of PU-O-6099 and PU-O-6100 contained the T7 promoter sequence. […] Next, PCR amplification of the T7-TagBFP-2A backbone was completed using the Q5® High-Fidelity DNA Polymerase and PU-O-6101 and PU-O-6102 as the primers. […] The Gluc insert was then ligated to the T7-TagBFP-2A backbone using the In-Fusion® HD Cloning Kit.
Translation Inhibition Assay. Huh7 cells were seeded at 6,250 cells per well in 96-well format. The cells were then transfected with 50 ng T7-TagBFP-Gluc in vitro transcribed RNA per well. Five hours post-transfection, transfection medium was changed to medium containing isocotoin, ribavirin, cycloheximide, or roclagamide at 6 or 7 different concentrations. DMSO concentration was kept constant in all the wells at 0.125%. For each drug dose, triplicate wells were tested. On day four post-transfection, a luciferase assay was performed on supernatant media to measure Gluc expression.

[2] = test system: p6/Gluc (HEVΔORF2/3[Gluc]) replicon, KernowC1p6 genotype 3; test: Dose titration against p6/Gluc replicon in Huh7 cells, Gaussia luciferase readout; type: cell-based, hepatitis E virus; details: for inhibition of p6/Gluc (HEV) replication, in words: Huh7 cells, supernatant Gluc
Experimental: Gaussia luciferase assays.
Statistics—calculation of IC50. Half maximal inhibitory concentrations were calculated by graphing dose-titration data as nonlinear curve fits with three parameters using GraphPad Prism (v8.1.2).

[3] = test system: Huh7 cells; test: ATP-based cell viability assay (CellTiterGlo); details: ATP live-cell viability assay
Experimental: Measurement of Cytotoxicity by CellTiterGlo Assay. […] Readout was performed using a Berthold luminometer.

Row | Structure (SMILES) | inhibition of p6/Gluc (HEV) replication, in words [2] | cytotoxicity / inhibition of cell growth, in words [3] | also measured
1 | COc1ccc([C@@]23Oc4cc(OC)cc(OC)c4C2(O)[C@H](O)[C@H](C(=O)N(C)C)[C@H]3c2ccccc2)cc1 (stereo in doubt) [roclagamide, (1R,2R,3S,3aR,8bS)-1,8b-dihydroxy-6,8-dimethoxy-3a-(4-methoxyphenyl)-N,N-dimethyl-3-phenyl-2,3-dihydro-1H-cyclopenta[b][1]benzofuran-2-carboxamide, reference compound] | – | – | suppression of Gluc levels [1]: ~10 fold
2 | C=CCNC1=C2C[C@@H](C)C[C@H](OC)[C@H](O)[C@@H](C)/C=C(\C)[C@H](OC(N)=O)[C@@H](OC)/C=C\C=C(/C)C(=O)NC(=CC1=O)C2=O [17-AAG, [(4E,6Z,8S,9S,10E,12S,13R,14S,16R)-13-hydroxy-8,14-dimethoxy-4,10,12,16-tetramethyl-3,20,22-trioxo-19-(prop-2-enylamino)-2-azabicyclo[16.3.1]docosa-1(21),4,6,10,18-pentaen-9-yl] carbamate, reference compound] | inhibited HEV replication; also recorded: potent inhibitors | cytostatic properties; also recorded: inhibitors of cell growth | –
3 | CCNC(=O)c1noc(-c2cc(C(C)C)c(O)cc2O)c1-c1ccc(CN2CCOCC2)cc1 [AUY-922, 5-(2,4-dihydroxy-5-propan-2-ylphenyl)-N-ethyl-4-[4-(morpholin-4-ylmethyl)phenyl]-1,2-oxazole-3-carboxamide, reference compound] | inhibited HEV replication; also recorded: potent inhibitors; also recorded: most potent analogs | – | –
4 | O=C(c1ccc(Cl)cc1)c1ccc(O)cc1O [IBS102, (4-chlorophenyl)-(2,4-dihydroxyphenyl)methanone] | – | – | fold greater decrease in RLU than isocotoin ([2]; 25 μM dose, first round of SAR): approximately 10 fold
5 | COc1ccc(-c2c(C)noc2-c2ccc(O)cc2O)cc1 [IBS672, 4-[4-(4-methoxyphenyl)-3-methyl-1,2-oxazol-5-yl]benzene-1,3-diol] | – | – | fold greater decrease in RLU than isocotoin ([2]; 1.5625 μM, second round of SAR): approximately 40 fold
6 | CC(C)c1cc(-c2n[nH]c(=O)n2-c2ccc3c(ccn3C)c2)c(O)cc1O [STA-9090, 3-(2,4-dihydroxy-5-propan-2-ylphenyl)-4-(1-methylindol-5-yl)-1H-1,2,4-triazol-5-one, reference compound] | inhibited HEV replication; also recorded: potent inhibitors | cytostatic properties; also recorded: inhibitors of cell growth | –
7 | CCNC(=O)c1noc(-c2cc(Cl)c(O)cc2O)c1-c1ccc(OC)cc1 [VER-50589, 5-(5-chloro-2,4-dihydroxyphenyl)-N-ethyl-4-(4-methoxyphenyl)-1,2-oxazole-3-carboxamide, reference compound] | inhibited HEV replication; also recorded: potent inhibitors; also recorded: most potent analogs | cytostatic properties; also recorded: inhibitors of cell growth | –
8 | C[C@@H]1C[C@@H]([C@H](O)CC2CC(=O)NC(=O)C2)C(=O)[C@@H](C)C1 [cycloheximide, reference compound] | – | – | suppression of Gluc levels [1]: ~10 fold
9 | C[C@H]1O[C@@H](O[C@H]2[C@@H](O)C[C@H](O[C@H]3[C@@H](O)C[C@H](O[C@H]4CC[C@@]5(C)[C@H](CC[C@@H]6[C@@H]5CC[C@]5(C)[C@@H](C7=CC(=O)OC7)[C@@H](O)C[C@]65O)C4)O[C@@H]3C)O[C@@H]2C)C[C@H](O)[C@@H]1O [gitoxin] | dose-dependent inhibition | high cytotoxicity | –
